Organism: Rattus norvegicus
Test: DrugMatrix - Regimen: Daily Repeat
Format: toxicity, organism-based, Sprague-Dawley
Set-up: regimen Daily Repeat, gender Male, age 6-8 weeks
Conditions: in vivo, po, route oral GAVAGE, […]; for ABSOLUTE BASOPHIL / ABSOLUTE EOSINOPHIL / ABSOLUTE LYMPHOCYTE / ABSOLUTE MONOCYTE / ABSOLUTE SEGMENTED NEUTROPHIL / BASOPHIL / EOSINOPHIL / ERYTHROCYTE COUNT / HEMATOCRIT / HEMOGLOBIN / LEUKOCYTE COUNT / LYMPHOCYTE / MEAN CORPUSCULAR HEMOGLOBIN / MEAN CORPUSCULAR HEMOGLOBIN CONCENTRATION / MEAN CORPUSCULAR VOLUME / MONOCYTE / NEUTROPHIL / NUCLEATED RED BLOOD CELLS / PLATELET COUNT: tissue Blood; for ALANINE AMINOTRANSFERASE / ALBUMIN / ALKALINE PHOSPHATASE / ASPARTATE AMINOTRANSFERASE / BLOOD UREA NITROGEN / CARBON DIOXIDE / CHLORIDE / CHOLESTEROL / CREATINE PHOSPHOKINASE / CREATININE / GLUCOSE / LACTATE DEHYDROGENASE / LIPASE / PHOSPHORUS / POTASSIUM / SODIUM / TOTAL BILIRUBIN / TOTAL PROTEIN / URIC ACID: tissue Plasma
[1] = 0.6 mg/kg, 120 h, dose level Low, time 5 day
[2] = 4.5 mg/kg, 72 h, dose level High, time 3 day
[3] = 4.5 mg/kg, 120 h, dose level High, time 5 day

O=C(O)CCCc1ccc(N(CCCl)CCCl)cc1 [CHLORAMBUCIL]
ABSOLUTE BASOPHIL [1]: 0 CELLS/uL
ABSOLUTE EOSINOPHIL [1]: 245.67 CELLS/uL
ABSOLUTE LYMPHOCYTE [1]: 10916 CELLS/uL
ABSOLUTE MONOCYTE [1]: 468.33 CELLS/uL
ABSOLUTE SEGMENTED NEUTROPHIL [1]: 1403.33 CELLS/uL
BASOPHIL [1]: 0%
EOSINOPHIL [1]: 1.67%
ERYTHROCYTE COUNT [1]: 5.48 x10E6/uL
HEMATOCRIT [1]: 34.97%
HEMOGLOBIN [1]: 13.77 G/DL
LEUKOCYTE COUNT [1]: 13.03 x10E3/uL
LYMPHOCYTE [1]: 84.33%
MEAN CORPUSCULAR HEMOGLOBIN [1]: 25.13 pg
MEAN CORPUSCULAR HEMOGLOBIN CONCENTRATION [1]: 39.37 G/DL
MEAN CORPUSCULAR VOLUME [1]: 63.77 fL
MONOCYTE [1]: 3.67%
NEUTROPHIL [1]: 10.33%
NUCLEATED RED BLOOD CELLS [1]: 0 /100WBC
PLATELET COUNT [1]: 1176 x10E3/uL
ALANINE AMINOTRANSFERASE [1]: 57.33 u/L
ALBUMIN [1]: 4.03 G/DL
ALKALINE PHOSPHATASE [1]: 437.67 u/L
ASPARTATE AMINOTRANSFERASE [1]: 74.67 u/L
BLOOD UREA NITROGEN [1]: 12 mg/dL
CARBON DIOXIDE [1]: 24.33 mmol/L
CHLORIDE [1]: 100.67 MEQ/L
CHOLESTEROL [1]: 76.67 mg/dL
CREATINE PHOSPHOKINASE [1]: 301 u/L
CREATININE [1]: 0.16 mg/dL
GLUCOSE [1]: 184.33 mg/dL
LACTATE DEHYDROGENASE [1]: 187.33 u/L
LIPASE [1]: 7 u/L
PHOSPHORUS [1]: 10.63 mg/dL
POTASSIUM [1]: 6.13 MEQ/L
SODIUM [1]: 139.57 MEQ/L
TOTAL BILIRUBIN [1]: 0.13 mg/dL
TOTAL PROTEIN [1]: 5.83 G/DL
URIC ACID [1]: 1.33 mg/dL
ABSOLUTE BASOPHIL [2]: 0 CELLS/uL
ABSOLUTE EOSINOPHIL [2]: 76.67 CELLS/uL
ABSOLUTE LYMPHOCYTE [2]: 5496.33 CELLS/uL
ABSOLUTE MONOCYTE [2]: 177.33 CELLS/uL
ABSOLUTE SEGMENTED NEUTROPHIL [2]: 816.33 CELLS/uL
BASOPHIL [2]: 0%
EOSINOPHIL [2]: 1.33%
ERYTHROCYTE COUNT [2]: 5.43 x10E6/uL
HEMATOCRIT [2]: 34.5%
HEMOGLOBIN [2]: 13.73 G/DL
LEUKOCYTE COUNT [2]: 6.57 x10E3/uL
LYMPHOCYTE [2]: 84.33%
MEAN CORPUSCULAR HEMOGLOBIN [2]: 25.33 pg
MEAN CORPUSCULAR HEMOGLOBIN CONCENTRATION [2]: 39.77 G/DL
MEAN CORPUSCULAR VOLUME [2]: 63.67 fL
MONOCYTE [2]: 2.67%
NEUTROPHIL [2]: 11.67%
NUCLEATED RED BLOOD CELLS [2]: 0 /100WBC
PLATELET COUNT [2]: 1208.33 x10E3/uL
ALANINE AMINOTRANSFERASE [2]: 50 u/L
ALBUMIN [2]: 4.1 G/DL
ALKALINE PHOSPHATASE [2]: 336 u/L
ASPARTATE AMINOTRANSFERASE [2]: 69 u/L
BLOOD UREA NITROGEN [2]: 13 mg/dL
CARBON DIOXIDE [2]: 25.33 mmol/L
CHLORIDE [2]: 100.33 MEQ/L
CHOLESTEROL [2]: 70.67 mg/dL
CREATINE PHOSPHOKINASE [2]: 260.33 u/L
CREATININE [2]: 0.34 mg/dL
GLUCOSE [2]: 191.33 mg/dL
LACTATE DEHYDROGENASE [2]: 111 u/L
LIPASE [2]: 9 u/L
PHOSPHORUS [2]: 12.53 mg/dL
POTASSIUM [2]: 6.51 MEQ/L
SODIUM [2]: 140.03 MEQ/L
TOTAL BILIRUBIN [2]: 0.1 mg/dL
TOTAL PROTEIN [2]: 5.57 G/DL
URIC ACID [2]: 2.1 mg/dL
ABSOLUTE BASOPHIL [3]: 0 CELLS/uL
ABSOLUTE EOSINOPHIL [3]: 0 CELLS/uL
ABSOLUTE LYMPHOCYTE [3]: 1406 CELLS/uL
ABSOLUTE MONOCYTE [3]: 62.67 CELLS/uL
ABSOLUTE SEGMENTED NEUTROPHIL [3]: 98 CELLS/uL
BASOPHIL [3]: 0%
EOSINOPHIL [3]: 0%
ERYTHROCYTE COUNT [3]: 5.5 x10E6/uL
HEMATOCRIT [3]: 34.17%
HEMOGLOBIN [3]: 13.53 G/DL
LEUKOCYTE COUNT [3]: 1.57 x10E3/uL
LYMPHOCYTE [3]: 90%
MEAN CORPUSCULAR HEMOGLOBIN [3]: 24.63 pg
MEAN CORPUSCULAR HEMOGLOBIN CONCENTRATION [3]: 39.63 G/DL
MEAN CORPUSCULAR VOLUME [3]: 62.13 fL
MONOCYTE [3]: 4%
NEUTROPHIL [3]: 6%
NUCLEATED RED BLOOD CELLS [3]: 0 /100WBC
PLATELET COUNT [3]: 1169.33 x10E3/uL
ALANINE AMINOTRANSFERASE [3]: 45 u/L
ALBUMIN [3]: 3.97 G/DL
ALKALINE PHOSPHATASE [3]: 263.67 u/L
ASPARTATE AMINOTRANSFERASE [3]: 75.33 u/L
BLOOD UREA NITROGEN [3]: 13 mg/dL
CARBON DIOXIDE [3]: 24.33 mmol/L
CHLORIDE [3]: 101 MEQ/L
CHOLESTEROL [3]: 70.67 mg/dL
CREATINE PHOSPHOKINASE [3]: 644 u/L
CREATININE [3]: 0.13 mg/dL
GLUCOSE [3]: 157 mg/dL
LACTATE DEHYDROGENASE [3]: 154 u/L
LIPASE [3]: 7.33 u/L
PHOSPHORUS [3]: 9.53 mg/dL
POTASSIUM [3]: 6.16 MEQ/L
SODIUM [3]: 140.2 MEQ/L
TOTAL BILIRUBIN [3]: 0.2 mg/dL
TOTAL PROTEIN [3]: 5.73 G/DL
URIC ACID [3]: 1.3 mg/dL

From ChEMBL document CHEMBL3885881, “DrugMatrix”
